Data as given in patent US7498438B2, “Fused ring NK1 antagonists” (Schering Corporation, priority 2004, dated 2009).

molecular target: NK1 receptor (Homo sapiens, UniProt P25103); test: NK1 receptor binding: inhibition of Substance P binding, Ki by the Chang-Prusoff equation
From the text: The in vitro and in vivo NK1, NK2 and NK3 activities of the compounds of Formula 1 can be determined by various procedures known in the art, such as a test for their ability to inhibit the activity of the NK1 agonist Substance P. The percent inhibition of neurokinin agonist activity is the difference between the percent of maximum specific binding (“MSB”) and 100%. The percent of MSB is defined by the following equation, wherein “dpm” represents “disintegrations per minute”:
[formula] The concentration at which the compound produces 50% inhibition of binding is then used to determine an inhibition constant (“Ki”) using the Chang-Prusoff equation.
The activities (potencies) for the compounds of the invention are determined by measuring their Ki values. […] Even more preferred are compounds having average Ki values of from 0.01 nM to about 10 nM for the NK1 receptor. Especially preferred compounds have NK1 average Ki values of from 0.01 nM to about 3 nM. Even more especially preferred compounds have NK1 average Ki values of from 0.01 nM to about 0.3 nM.

Sequence of NK1 receptor (P25103 whole entry, species assumed): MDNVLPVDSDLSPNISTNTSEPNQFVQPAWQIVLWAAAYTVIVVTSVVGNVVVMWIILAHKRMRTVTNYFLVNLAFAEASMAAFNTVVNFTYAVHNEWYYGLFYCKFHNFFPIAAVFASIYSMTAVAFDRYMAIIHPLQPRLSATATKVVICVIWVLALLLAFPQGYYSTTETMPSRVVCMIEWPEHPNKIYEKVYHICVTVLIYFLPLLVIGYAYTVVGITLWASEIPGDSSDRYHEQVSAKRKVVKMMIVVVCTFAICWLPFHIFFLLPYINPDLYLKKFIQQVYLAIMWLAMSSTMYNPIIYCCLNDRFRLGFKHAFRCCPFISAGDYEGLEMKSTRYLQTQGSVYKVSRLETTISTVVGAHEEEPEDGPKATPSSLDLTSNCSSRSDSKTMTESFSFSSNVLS

SMILES	Ki [nM]
C[C@@H](OC[C@@]1(c2ccccc2)CCC2OC(=O)NC2N1)c1cc(C(F)(F)F)cc(C(F)(F)F)c1 (single isomer, unassigned) [Compound 4b]	0.32
C[C@@H](OC[C@@]1(c2ccccc2)CC[C@@H]2NC(=O)OCCC2N1)c1cc(C(F)(F)F)cc(C(F)(F)F)c1 (some centres unmarked) [Compound 6a]	0.14
C[C@@H](OC[C@@]1(c2ccccc2)CC[C@@H]2NC(=O)CC2N1)c1cc(C(F)(F)F)cc(C(F)(F)F)c1 (some centres unmarked) [Compound 5a]	0.23
C[C@@H](OC[C@@]1(c2ccccc2)C[C@H]2OC(=O)NC2CN1)c1cc(C(F)(F)F)cc(C(F)(F)F)c1 (some centres unmarked) [Compound 9a]	0.28

Further compounds by falling Ki, results first:

Ki [nM]	SMILES
0.62	C[C@@H](OC[C@@]1(c2ccccc2)CCC2OC(=O)NC2N1)c1cc(C(F)(F)F)cc(C(F)(F)F)c1 (single isomer, unassigned) [Compound 4a]
0.36	C[C@@H](OC[C@@]1(c2ccccc2)CC[C@@H]2NC(=O)NCC2N1)c1cc(C(F)(F)F)cc(C(F)(F)F)c1 (some centres unmarked) [Compound 8]
0.3	C[C@@H](OC[C@@]1(c2ccccc2)CC[C@@H]2NC(=O)CCC2N1)c1cc(C(F)(F)F)cc(C(F)(F)F)c1 (some centres unmarked) [Compound 7]
0.23	C[C@@H](OC[C@@]1(c2ccccc2)C[C@H]2NC(=O)NC2CN1)c1cc(C(F)(F)F)cc(C(F)(F)F)c1 (some centres unmarked) [Compound 1a]
